Read-outs that look alike come from different tables or passages of the source.
Tests used:
[1] = system: alternative pathway (AP) hemolytic activity; assay: AP hemolysis inhibition assay; format: cell-based; details: Normal Human Serum, chicken or rabbit erythrocytes
Experimental: The ability of the compounds disclosed herein to inhibit alternative pathway (AP) hemolytic activity was determined. […] In 100 μL reaction system, 1300 to […] final concentration of Normal Human Serum (CompTech) was incubated with compound for 15 min at 37° C. Then 2×10^6 cells/well of chicken or rabbit erythrocytes in assay buffer were added and incubated for an additional 60 min at 37° C. Positive control (100% lysis) consists of serum and RBC, and negative control (0% lysis) consists of assay buffer and RBC only. Samples were centrifuged at 2000 g for 5 min, and supernatants collected. […] Percentage lysis in each sample is calculated relative to positive control (100% lysis).

[2] = target: T1, human complement factor D (Homo sapiens, UniProt P00746); assay: In vitro enzyme inhibition of human complement factor D (Z-Lys-SBzl/DTNB, A405); format: biochemical
T1 construct: purchased R&D Systems 1824-SE
Outline: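 Buffer 50 mM Tris/HCl pH 7.5, 1 M NaCl, 0.5% final DMSO; compounds pre-incubated with enzyme 5 min at room temperature, then Z-Lys-SBzl with DTNB added (each diluted to 200 μM before addition).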

[3] = biochemical assay, substrate Z-Lys-SBzl, read-out: CFD IC50

T1 sequence (P00746 26-253): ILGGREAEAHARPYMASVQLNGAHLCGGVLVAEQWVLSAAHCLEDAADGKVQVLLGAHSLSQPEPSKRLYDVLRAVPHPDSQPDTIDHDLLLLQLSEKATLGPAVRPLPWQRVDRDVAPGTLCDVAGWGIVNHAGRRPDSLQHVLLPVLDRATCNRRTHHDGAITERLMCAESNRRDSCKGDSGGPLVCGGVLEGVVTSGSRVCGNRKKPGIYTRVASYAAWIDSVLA

IC50 [2, 3] [nM] | Compound | EC50 [1] [nM] | IC50 [2] [nM]
1000 to 10000 | NC(=O)c1nn(CC(=O)N(CC(=O)NCc2ccccc2F)C2CC2)c2ccccc12 [Example 115, 1-(2-(cyclopropyl(2-((2-fluorobenzyl)amino)-2-oxoethyl)amino)-2-oxoethyl)-1H-indazole-3-carboxamide] |  | 
1000 to 10000 | COc1c(Cl)cccc1CNC(=O)CN(C(=O)Cn1nc(C(N)=O)c2ccccc21)C1CC1 [Example 116, 1-(2-((2-((3-chloro-2-methoxybenzyl)amino)-2-oxoethyl)(cyclopropyl)amino)-2-oxoethyl)-1H-indazole-3-carboxamide] |  | 
1000 to 10000 | NC(=O)c1nn(CC(=O)N(CC(=O)NCc2cccc(N)c2F)C2CC2)c2ccccc12 [Example 118, 1-(2-((2-((3-amino-2-fluorobenzyl)amino)-2-oxoethyl)(cyclopropyl)amino)-2-oxoethyl)-1H-indazole-3-carboxamide] |  | 
< 100 | NC(=O)c1nn(CC(=O)N(CC(=O)NCc2cccc(Br)c2F)C2CC2)c2ccccc12 [Example 120, 1-(2-((2-((3-bromo-2-fluorobenzyl)amino)-2-oxoethyl)(cyclopropyl)amino)-2-oxoethyl)-1H-indazole-3-carboxamide] |  | 
1000 to 10000 | NC(=O)c1nn(CC(=O)N(CC(=O)NCc2ccc(N)cc2F)C2CC2)c2ccccc12 [Example 121, 1-(2-((2-((4-amino-2-fluorobenzyl)amino)-2-oxoethyl)(cyclopropyl)amino)-2-oxoethyl)-1H-indazole-3-carboxamide] |  | 
1000 to 10000 | COc1cccc(CNC(=O)CN(C(=O)Cn2nc(C(N)=O)c3ccccc32)C2CC2)c1F [Example 122, 1-(2-(cyclopropyl(2-((2-fluoro-3-methoxybenzyl)amino)-2-oxoethyl)amino)-2-oxoethyl)-1H-indazole-3-carboxamide] |  | 
1000 to 10000 | N#Cc1cccc(CNC(=O)CN(C(=O)Cn2nc(C(N)=O)c3ccccc32)C2CC2)c1F [Example 123, 1-(2-((2-((3-cyano-2-fluorobenzyl)amino)-2-oxoethyl)(cyclopropyl)amino)-2-oxoethyl)-1H-indazole-3-carboxamide] |  | 
> 10000 | NC(=O)c1nn(CC(=O)N(CC(=O)NCc2cccc(CO)c2F)C2CC2)c2ccccc12 [Example 126, 1-(2-(cyclopropyl(2-((2-fluoro-3-(hydroxymethyl)benzyl)amino)-2-oxoethyl)amino)-2-oxoethyl)-1H-indazole-3-carboxamide] |  | 
1000 to 10000 | NC(=O)c1nn(CC(=O)N(CC(=O)NCc2cccc(C3CC3)c2F)C2CC2)c2ccccc12 [Example 127, 1-(2-(cyclopropyl(2-((3-cyclopropyl-2-fluorobenzyl)amino)-2-oxoethyl)amino)-2-oxoethyl)-1H-indazole-3-carboxamide] |  | 
100 to 1000 | Cc1cccc(CNC(=O)CN(C(=O)Cn2nc(C(N)=O)c3ccccc32)C2CC2)c1F [Example 128, 1-(2-(cyclopropyl(2-((2-fluoro-3-methylbenzyl)amino)-2-oxoethyl)amino)-2-oxoethyl)-1H-indazole-3-carboxamide] |  | 
> 10000 | NC(=O)c1nn(CC(=O)N(CC(=O)NCc2cccc(Cl)c2C2CC2)C2CC2)c2ccccc12 [Example 131, 1-(2-((2-((3-chloro-2-cyclopropylbenzyl)amino)-2-oxoethyl)(cyclopropyl)amino)-2-oxoethyl)-1H-indazole-3-carboxamide] |  | 
100 to 1000 | NC(=O)c1nn(CC(=O)N(CC(=O)NCc2cccc(F)c2F)C2CC2)c2ccccc12 [Example 132, 1-(2-(cyclopropyl(2-((2,3-difluorobenzyl)amino)-2-oxoethyl)amino)-2-oxoethyl)-1H-indazole-3-carboxamide] |  | 
1000 to 10000 | Cc1c(Cl)cccc1CNC(=O)CN(C(=O)Cn1nc(C(N)=O)c2ccccc21)C1CC1 [Example 134, 1-(2-((2-((3-chloro-2-methylbenzyl)amino)-2-oxoethyl)(cyclopropyl)amino)-2-oxoethyl)-1H-indazole-3-carboxamide] |  | 
1000 to 10000 | NC(=O)c1nn(CC(=O)N(CC(=O)NCc2cccc(Cl)c2C(F)(F)F)C2CC2)c2ccccc12 [Example 135, 1-(2-((2-((3-chloro-2-(trifluoromethyl)benzyl)amino)-2-oxoethyl)(cyclopropyl)amino)-2-oxoethyl)-1H-indazole-3-carboxamide] |  | 
1000 to 10000 | NC(=O)c1nn(CC(=O)N(CC(=O)NCc2cccc(C(F)(F)F)c2F)C2CC2)c2ccccc12 [Example 136, 1-(2-(cyclopropyl(2-((2-fluoro-3-(trifluoromethyl)benzyl)amino)-2-oxoethyl)amino)-2-oxoethyl)-1H-indazole-3-carboxamide] |  | 

Further lines, the compound ahead of its results:

Compound | IC50 [2, 3] [nM] | EC50 [1] [nM] | IC50 [2] [nM]
NC(=O)n1nc(CC(=O)N(CC(=O)NCc2cccc(Cl)c2F)C2CC2)c2ccccc21 [Example 8, 3-(2-((2-((3-chloro-2-fluorobenzyl)amino)-2-oxoethyl)(cyclopropyl)amino)-2-oxoethyl)-1H-indazole-1-carboxamide] | < 100 | 100 to 1000 | 
CC(C)N(CC(=O)Nc1cccc(Cl)n1)C(=O)Cn1nc(C(N)=O)c2ccccc21 [Example 12, 1-(2-((2-((6-chloropyridin-2-yl)amino)-2-oxoethyl)(isopropyl)amino)-2-oxoethyl)-1H-indazole-3-carboxamide] |  | 100 to 1000 | 100 to 1000
NC(=O)c1nn(CC(=O)N(CC(=O)Nc2cccc(Cl)n2)C2CC2)c2ccccc12 [Example 16, 1-(2-((2-((6-chloropyridin-2-yl)amino)-2-oxoethyl)(cyclopropyl)amino)-2-oxoethyl)-1H-indazole-3-carboxamide] |  | 100 to 1000 | 100 to 1000
NC(=O)n1nc(CC(=O)N(CC(=O)Nc2cccc(Cl)n2)C2CCC2)c2ccccc21 [Example 20, 3-(2-((2-((6-chloropyridin-2-yl)amino)-2-oxoethyl)(cyclobutyl)amino)-2-oxoethyl)-1H-indazole-1-carboxamide] | 100 to 1000 | 100 to 1000 | 
NC(=O)c1nn(CC(=O)N(CC(=O)NCc2cccc(Cl)c2F)C2CC2)c2cnccc12 [Example 40, 1-(2-((2-((3-chloro-2-fluorobenzyl)amino)-2-oxoethyl)(cyclopropyl)amino)-2-oxoethyl)-1H-pyrazolo[3,4-c]pyridine-3-carboxamide] | < 100 | 100 to 1000 | 
NC(=O)c1ccc(CNC(=O)CN(C(=O)Cn2nc(C(N)=O)c3ccccc32)C2CC2)c(F)c1 [Example 117, 1-(2-((2-((4-carbamoyl-2-fluorobenzyl)amino)-2-oxoethyl)(cyclopropyl)amino)-2-oxoethyl)-1H-indazole-3-carboxamide] | 1000 to 10000 |  | 
NC(=O)c1nn(CC(=O)N(CC(=O)NCc2cc(Cl)cc(Cl)c2)C2CC2)c2ccccc12 [Example 119, 1-(2-(cyclopropyl(2-((3,5-dichlorobenzyl)amino)-2-oxoethyl)amino)-2-oxoethyl)-1H-indazole-3-carboxamide] | 100 to 1000 |  | 
NC(=O)c1nn(CC(=O)N(CC(=O)NCc2cc(Cl)cc(C(F)(F)F)c2)C2CC2)c2ccccc12 [Example 124, 1-(2-((2-((3-chloro-5-(trifluoromethyl)benzyl)amino)-2-oxoethyl)(cyclopropyl)amino)-2-oxoethyl)-1H-indazole-3-carboxamide] | 1000 to 10000 |  | 
COc1ccc(CNC(=O)CN(C(=O)Cn2nc(C(N)=O)c3ccccc32)C2CC2)cc1Cl [Example 125, 1-(2-((2-((3-chloro-4-methoxybenzyl)amino)-2-oxoethyl)(cyclopropyl)amino)-2-oxoethyl)-1H-indazole-3-carboxamide] | 1000 to 10000 |  | 
Cc1cc(Cl)cc(CNC(=O)CN(C(=O)Cn2nc(C(N)=O)c3ccccc32)C2CC2)c1 [Example 129, 1-(2-((2-((3-chloro-5-methylbenzyl)amino)-2-oxoethyl)(cyclopropyl)amino)-2-oxoethyl)-1H-indazole-3-carboxamide] | 1000 to 10000 |  | 
NC(=O)c1nn(CC(=O)N(CC(=O)NCc2cncc(Cl)c2)C2CC2)c2ccccc12 [Example 130, 1-(2-((2-(((5-chloropyridin-3-yl)methyl)amino)-2-oxoethyl)(cyclopropyl)amino)-2-oxoethyl)-1H-indazole-3-carboxamide] | 1000 to 10000 |  | 
N#Cc1cc(Cl)cc(CNC(=O)CN(C(=O)Cn2nc(C(N)=O)c3ccccc32)C2CC2)c1 [Example 133, 1-(2-((2-((3-chloro-5-cyanobenzyl)amino)-2-oxoethyl)(cyclopropyl)amino)-2-oxoethyl)-1H-indazole-3-carboxamide] | 1000 to 10000 |  | 
CC(=O)c1nc(CC(=O)N(CC(=O)NCc2cccc(Cl)c2F)C2CC2)c2ccccn12 [Example 137, 2-(3-acetylimidazo[1,5-a]pyridin-1-yl)-N-(2-((3-chloro-2-fluorobenzyl)amino)-2-oxoethyl)-N-cyclopropylacetamide] | 1000 to 10000 |  | 
NC(=O)c1nc(CC(=O)N(CC(=O)NCc2cccc(Cl)c2F)C2CC2)c2ccccn12 [Example 138, 1-(2-((2-((3-chloro-2-fluorobenzyl)amino)-2-oxoethyl)(cyclopropyl)amino)-2-oxoethyl)imidazo[1,5-a]pyridine-3-carboxamide] | 100 to 1000 |  | 
NC(=O)c1nc(NC(=O)N(CC(=O)NCc2cccc(Cl)c2F)C2CC2)n2ccccc12 [Example 140, 3-(3-(2-((3-chloro-2-fluorobenzyl)amino)-2-oxoethyl)-3-cyclopropylureido)imidazo[1,5-a]pyridine-1-carboxamide] | 100 to 1000 |  | 
CC(=O)c1nc(NC(=O)N(CC(=O)NCc2cccc(Cl)c2F)C2CC2)c2ccccn12 [Example 141, 2-(3-(3-acetylimidazo[1,5-a]pyridin-1-yl)-1-cyclopropylureido)-N-(3-chloro-2-fluorobenzyl)acetamide] | 100 to 1000 |  | 

— US20190292155A1, “THERAPEUTIC INHIBITORY COMPOUNDS” (LifeSci Pharmaceuticals, Inc., priority 2016, published 2019)
